From patent publication US8742156B2 (priority 2010, dated 2014)
Structures can show the parent of a compound that is named as a salt. Where two headings read alike, the source gives them in different places.

Tests used:
[1] = system: H1N1 virus (A/HK/54/98 (Tamiflu-sensitive strain)); experiment: Viral infection of MDCK cells, TCID50 viral titer, H1N1 (Tamiflu-sensitive); format: cell-based, Human influenza H1N1 virus; conditions: for TCID50/ml H1N1 virus: m.o.i of 2, supernatant 48-hour post-infection; for viral titers of Tamiflu-sensitive (Tami-S) H1N1 virus decreased (fold): FIG. 1, multiplicity of infection of 0.2, 48-hour post-infection
H3N2 (A/H3N2/1174/99) = experiment: Viral infection of MDCK cells, TCID50 viral titer, H3N2; format: cell-based, influenza H3N2 virus; conditions: for TCID50/ml H3N2 virus: m.o.i of 2, supernatant 48-hour post-infection
H9N2 (A/Quail/HK/G1/97) = format: cell-based, influenza H9N2 virus; conditions: for TCID50/ml H9N2 virus: m.o.i of 2, supernatant 48-hour post-infection
MDCK cells = experiment: Cell Viability Test (MTT); format: cell-based, canine; conditions: 50 uM, 72 hours
Description: This compound was obtained from the National Cancer Institute, USA. Cell Viability Test: MDCK cells were seeded at 2×10^6/ml in a 96-well plate for 16-24 hours. Compound 58 (50 uM) was added to the cells. DMSO was added to the cells as a control. Cells were incubated at 37° C. and 5% CO2 for 72 hours, and then Thiazolyl Blue Tetrazolium Bromide (MTT) was added to a final concentration of 0.1 mg/ml. After two hours, the culture supernatant was removed and each well was replenished with isopropanol. The MTT metabolic product, formazan, was dissolved in isopropanol for five minutes with shaking. The optical densities of formazan and background were measured at 560 nm and 670 nm, respectively.

SMILES | TCID50/ml H1N1 virus ([1]; 100 μM) | virus level suppressed (fold) ([1]; H1N1 tamiflu-sensitive, Table 1B (100 μM)) | TCID50/ml H1N1 virus ([1]; 50 μM) | viral titers of Tamiflu-sensitive (Tami-S) H1N1 virus decreased (fold) [1] [fold] | TCID50/ml H3N2 virus (H3N2 (A/H3N2/1174/99); 50 μM) | TCID50/ml H9N2 virus (H9N2 (A/Quail/HK/G1/97); 50 μM) | TCID50/ml H1N1 virus ([1]; 10 μM) | TCID50/ml H1N1 virus ([1]; 20 μM) | inhibitory effects against Tami-S H1N1 virus ([1]; FIG. 1, multiplicity of infection of 0.2) | inhibition of replication of H1N1 virus ([1]; TCID50 results, Table 1A) | TCID50/ml H3N2 virus (H3N2 (A/H3N2/1174/99); 10 μM) | TCID50/ml H3N2 virus (H3N2 (A/H3N2/1174/99); 20 μM) | inhibition of replication of H3N2 virus (H3N2 (A/H3N2/1174/99); TCID50 results, Table 1A) | cytotoxicity in MDCK cells compared with DMSO (MDCK cells) | Cytotoxicity index (MDCK cells; MDCK cells, MTT, relative to DMSO (1.0)) | TCID50/ml H9N2 virus (H9N2 (A/Quail/HK/G1/97); 10 μM) | TCID50/ml H9N2 virus (H9N2 (A/Quail/HK/G1/97); 20 μM) | inhibition of replication of H9N2 virus (H9N2 (A/Quail/HK/G1/97); TCID50 results, Table 1A)
O=C(Nc1ccc(Nc2ccncc2)cc1)c1ccc(Nc2ccnc3ccccc23)cc1[N+](=O)[O-] [Compound 73, 2-nitro-N-[4-(pyridin-4-ylamino)phenyl]-4-(quinolin-4-ylamino)benzamide] | 2.28 × 10^3 TCID50/ml | around 10 fold |  |  |  |  |  |  |  |  |  |  |  |  |  |  |  | 
CCOC(=O)C1=C[C@@H](OC(CC)CC)[C@H](NC(C)=O)[C@@H](N)C1 [Tamiflu, oseltamivir, reference compound] | 1.52 × 10^3 TCID50/ml |  | 1.45 × 10^4 TCID50/ml | 8 | 7.24 × 10^3 TCID50/ml | 9.00 × 10^1 TCID50/ml |  |  |  |  |  |  |  |  |  |  |  | 
N=C(Nc1ccccc1)SCCCSC(=N)Nc1ccccc1 [Compound 58, Carbamimidothioic acid, phenyl-, 1,3-propanediyl ester, dihydrobromide] |  |  | 4.53 × 10^2 TCID50/ml | 5 | 7.24 × 10^3 TCID50/ml | 1.90 × 10^2 TCID50/ml | 2.90 × 10^4 TCID50/ml | 1.82 × 10^4 TCID50/ml | potent inhibitory effects | inhibits the replication | 4.61 × 10^4 TCID50/ml | 1.72 × 10^4 TCID50/ml | inhibits the replication | does not display cytotoxicity | 0.916 | 1.14 × 10^3 TCID50/ml | 4.16 × 10^2 TCID50/ml | inhibits the replication
